Activity calls are given as the source filed them.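 Rule for the calls: active = compounds giving half or more protection of infected cells from virus-caused growth loss, again on retest; inactive = the rest.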
Tested on: CEM cells HIV-1 protection, formazan growth assay
Experiment: NCI AIDS Antiviral Assay
Conditions: for IC50: measured here: growth of uninfected CEM cells
Summary of the method: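 Steps: treat uninfected and HIV-1-infected human CEM cells at five drug levels; quantify growth by soluble formazan; retest any compound reaching 50% protection; classify actives from the retest.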

SMILES	EC50 [µM]	IC50 [µM]	outcome
O=c1c2c3c(sc2nc2n1N=CN(c1ccc(Cl)cc1)C2)CCCC3	> 200	38	–
COc1cc2c(cc1O)C=NCC2	–	–	inactive
COc1ccc(C2OC(N)=C(C#N)C3=C2CCCC3C)cc1OC (configuration not stated)	> 200	> 200	–
O=C(O)CCC1CCc2cccc(OCC(=O)O)c2C1=O (configuration not stated)	–	–	inactive
NS(=O)(=O)c1ccc(NC(=O)CC(=O)Nc2ccc(S(N)(=O)=O)cc2)cc1	–	–	inactive
O=c1[nH]c2ccccc2c(O)c1N=Nc1ccc(N=Nc2ccc(S(=O)(=O)O)cc2)cc1	> 200	> 200	–
CCOC(=O)/C(=C\c1ccc2ccccc2c1)P(=O)(OCC)OCC	> 186	5.37	–
COc1ccc(/C=N/Nc2ccc(S(=O)(=O)O)cc2)cc1	> 759	331	–
COc1cc2c(cc1OC)C(Cc1ccc(O)cc1)N(C)CC2 (configuration not stated)	–	–	inactive
O=C(c1ccccc1)C1CSS(=O)(=O)C1c1ccccc1 (configuration not stated)	27.5	91.2	–
Oc1ccccc1C=Nc1ccccc1S.[Cu+2]	> 151	2.57	–
O=S1OC2(c3ccccc3-c3ccccc32)c2ccccc21 (configuration not stated)	–	–	inactive
COc1ccccc1C1c2cc3c(cc2OC(N2CCCC2)C1C)OCO3 (configuration not stated)	> 200	16.2	–
COC1=CC(=O)c2ccccc2C1(C)C1=NC(C)(C)CO1 (configuration not stated)	> 631	> 631	–
COc1cc(-c2ccc(N=Nc3cc4cc(S(=O)(=O)O)ccc4cc3O)c(OC)c2)ccc1N=Nc1cc2cc(S(=O)(=O)O)ccc2cc1O	17.4	120	–
CCOC(=O)CSc1nc(-c2ccccc2)c(C#N)c(=O)[nH]1	–	–	inactive
NC(=O)c1sc2nc3ccccc3n2c1N	> 200	> 200	–
COc1cc2c(cc1C)n(O)c(C)c(C(=O)C/C(=N/NC(=O)C[N+](C)(C)C)C(=O)Nc1cccc(Cl)c1C)[n+]2=O	> 12	> 12	–
COc1ccccc1C=NC12CC3CC(CC(C3)C1)C2	> 132	110	–
CO[C@H](C(=O)[C@@H](O)[C@@H](C)O)[C@@H]1Cc2cc3cc(OC4CC(OC5CC(O)C(O)C(C)O5)C(O)C(C)O4)c(C)c(O)c3c(O)c2C(=O)[C@H]1OC1CC(OC2CC(OC3CC(C)(O)C(O)C(C)O3)C(O)C(C)O2)C(O)C(C)O1 (some centres not stated)	> 0.0302	> 0.0302	–
CC(C)=CC1CC(C)C2(CCC3(C)CC4C5/C(=C\CC32)C(=O)OC5CC4(C)O)O1 (configuration not stated)	> 2	0.398	–
N#Cc1cccc(Nc2ccccc2SSc2ccccc2Nc2cccc(C#N)c2)c1	> 58.9	4.79	–
CC1=C2CC(C)(C)/C=C\C(=O)/C(C)=C\C3=C[C@H](C)C[C@]3(O2)C1=O	> 0.2	0.0955	–

SMILES	EC50 [µM]	IC50 [µM]	outcome
CCCCNC(=O)Sc1ccccc1C(=O)N[C@H](C)C(N)=O	1.12	112	–
CCOC(=O)C(=O)Nc1ccccc1C(C)C	> 151	> 151	–
O=C1CC(NC(=O)C(F)(F)F)c2c(Br)sc(N3CCC(c4ccccc4)CC3)c21 (configuration not stated)	> 200	145	–
N#Cc1c(/N=C/c2ccccc2Cl)sc2c1CCC2	> 200	> 200	–
O=c1oc2ccccc2c2nc3cc(Cl)ccc3cc12	> 50.1	> 50.1	–
CCSC1=C(C)N(C=NC(C)(C)C)CC1	> 1100	> 1100	–
O=C(Cn1cc(I)c(C(=O)NCC(O)CO)n1)NCC(O)CO (configuration not stated)	> 562	> 562	–
CN1CC2=C(NC(=S)NC2c2ccc(Cl)cc2)/C(=C/c2ccc(Cl)cc2)C1 (configuration not stated)	> 200	33.9	–
Cn1c2ccccc2c2nnc(-n3nc(-c4ccccc4)cc3N)nc21	> 200	53.7	–
NC(=O)CNC(=O)CCCCC1CCSS1 (configuration not stated)	51.3	> 200	–
Cc1ccc(C2SC(N)=Nc3c2c(C)nn3C(=O)c2ccc(Cl)cc2)cc1 (configuration not stated)	–	–	inactive
Cc1nc2c(N)c3nc(C)n(N)c(=O)c3cc2c(=O)n1N	> 2.14	> 2.14	–
O=[N+]([O-])c1ccc2nc3ccscc-3c2c1	> 15.5	2.88	–
CCCCCCCCCCCCCCCC(=O)NC(Cc1ccc(O)cc1)C(=O)O (configuration not stated)	> 100	50.1	–
COc1ccc(CN2C(=O)C(=O)N(C)C2=O)c2ccccc12	> 200	25.7	–
COc1cccc(NC(=O)CC(=O)n2nc(-c3ccccc3)c(N=Nc3ccc(Cl)cc3)c2-c2ccccc2)c1	> 200	11.5	–
COc1c(Cc2cc(Cl)cc(S(=O)(=O)N(C)C)c2OC)cc(Cl)cc1S(=O)(=O)N(C)C	> 14.1	> 14.1	–
CC(=O)NC(CCCCNC(=O)OCc1ccccc1)C(=O)O (configuration not stated)	> 776	> 776	–
O=c1[nH]c2ccccc2c(O)c1/C=N/C(=S)NCc1ccccc1	> 200	> 200	–
NCCN(CCN)/[N+]([O-])=N/O	> 200	> 200	–
Cc1oc(NC(=O)C(=O)O)c(C#N)c1C	> 200	> 200	–
CC(=O)c1c2c(cc3c1CC1(C3)Cc3ccc4c(c3C1=O)CCC4)CCC2 (configuration not stated)	> 200	40.7	–
Cc1cc(S(=O)(=O)Nc2nc3cc(-c4ccc(Cl)cc4)sc3c(=O)n2N)c(S)cc1Cl	> 200	110	–

SMILES	EC50 [µM]	IC50 [µM]	outcome
COC1(CC2(OC)C=CC(=O)O2)C=CC(=O)O1 (configuration not stated)	> 105	55	–
COC(=O)c1c2c(cc3c1CC1(Cc4cc5c(c(C(C)=O)c4C1)CCCC5)C3)CCCC2 (configuration not stated)	> 200	> 200	–
CCOC(=O)/C(F)=C/c1ccc(F)cc1	> 123	> 123	–
COC(=O)C1=C(O)c2ccc(Cl)cc2S(=O)(=O)N1C	> 200	87.1	–
Nc1ccc2c3c(cccc13)C(=O)N(CCCBr)C2=O	> 200	7.08	–
CCCN1C(=O)/C(=C(/O)C(=O)OCC)C(c2ccc(OC)c(OC)c2)C1=O (configuration not stated)	–	–	inactive
O=C1c2[nH]c3ccc(Br)cc3c2CCN1Cc1ccc(Cl)cc1	> 200	11.2	–
N#C/C(=C\n1ccc(=O)[nH]c1=S)c1nc2ccccc2s1	> 200	> 200	–
CC1(C)CC2(C)CC1CC2O (configuration not stated)	> 200	> 200	–
CC(=O)OC1CC(OC(C)=O)[C@@]2(C)C[C@@H]3C(C)C(=O)O[C@H]3CC(C)C12 (some centres not stated)	> 74.1	42.7	–
Nc1nc(Cl)cc(N=Nc2ccccc2)n1	> 200	11.5	–
CCCC(CC)C(C(=O)OCC)C1=NC(C)(C)CC(C)O1 (configuration not stated)	> 200	> 200	–
O=[N+]([O-])c1cccc2c(N3CC3)cnnc12	–	–	inactive
CCC[CH2][Sn]([CH2]CCC)([S]CCS(=O)(=O)O)[S]CCS(=O)(=O)O	> 200	115	–
N#Cc1cc([N+](=O)[O-])ccc1NC(=O)C(F)(F)F	> 100	89.1	–
COc1cc(-c2cc(=O)c3c(O)cc(O)cc3o2)cc(OC)c1OC	> 64.6	> 64.6	–
Cc1ccc(O)c(C(c2cccc(C(c3cc(C)ccc3O)c3cc(C)ccc3O)c2)c2cc(C)ccc2O)c1	> 20	3.31	–
CCCCN1C(=O)C(=O)N(c2ccccc2C(F)(F)F)C1=O	> 200	158	–
CCCCOCn1c(=O)[nH]c(=O)c2ccccc21	> 200	162	–
CO[C@H]1/C=C/O[C@@]2(C)Oc3c(C)c(O)c4c(O)c(c(/C=N/N5CCNCC5)c(O)c4c3C2=O)NC(=O)/C(C)=C\C=C\[C@H](C)[C@H](O)[C@@H](C)[C@@H](O)[C@@H](C)C(OC(C)=O)[C@@H]1C (some centres not stated)	> 200	50.1	–
CC(=O)CCCCCCCCCCCC[C@@H]1CC[C@H](C)[C@H](O)N1	> 21.9	> 21.9	–
CCN(CC)CCNc1ccc2ncn3c4c(OC)ccc(OC)c4c(=O)c1c23	> 50.1	1.23	–
Cc1cc2cc(O)c3c(=O)c4c(O)cccc4c(=O)c3c2c(=O)c1=O	> 21.4	12	–

SMILES	EC50 [µM]	IC50 [µM]	outcome
CC1C(c2ccccc2O)c2cc3c(cc2OC1N1CCCC1)OCO3 (configuration not stated)	–	–	inactive
CCOC(=O)c1c(N2CCCC2)nsc1Nc1ccc(F)cc1	> 200	23.4	–
NC(CSS(=O)(=O)O)=NCCc1ccc(O)cc1	> 200	> 200	–
OCCSCC/C(=N\N=C(/CCSCCO)c1ccccc1)c1ccccc1	> 87.1	34.7	–
COc1cc(C)c(O)c(C(=O)O)c1	–	–	inactive
CC(=O)N1C(Nc2cnc3ccccc3c2)CCN1c1ccccc1 (configuration not stated)	> 200	17.8	–
Clc1ccc(-n2nnc(C3=NCCCN3)c2-c2ccccc2)cc1	129	148	–
O=C1CCC2(CC1)Cc1ccccc1C2O (configuration not stated)	> 200	> 200	–
Cc1nc(Nc2nc3ccccc3[nH]2)[nH]c(=O)c1CCO	> 200	> 200	–
CCOC(=O)[C@H]1Nc2ccc(O)cc2C2c3ccccc3CC21 (some centres not stated)	> 302	56.2	–
CC(C)(C)[Si](C)(C)OCC1OC(n2ccc(=O)[nH]c2=O)C(O[Si](C)(C)C(C)(C)C)[C@]12N[C@H](C(N)=O)CS2 (some centres not stated)	> 200	5.25	–
CC(=O)[C@H]1[C@@H](OCc2ccccc2)O[N+]([O-])=C(C)[C@@H]1c1ccccc1	> 123	89.1	–
CCOC(=O)C1(CO)CSCCSC1	> 1050	> 1050	–
CCCCCCCCCCCCCCCCc1c(C(=O)OC)nc(NN)[nH]c1=O	> 9.33	> 9.33	–
CCOC(=O)/C(=C/N1C(=O)/C(=C/c2cccc([N+](=O)[O-])c2)SC1=S)C(=O)c1ccccc1	> 200	18.6	–
CNC(=O)N1CCN(C(=O)NC)CCN(C(=O)NC)CC1	> 200	> 200	–
CC(=O)c1sc(=N)n(-c2c(C)cccc2C)c1C	> 200	> 200	–
FC(F)(F)/C(=N/Nc1ccccc1)SS/C(=N\Nc1ccccc1)C(F)(F)F	> 200	38	–
CCN1CCC(O)(/C=C/c2cccc(C)c2)C(C(=O)/C=C/c2cccc(C)c2)C1 (configuration not stated)	> 200	3.55	–
CC(NCCCNC(C)C(=O)O)C(=O)O (configuration not stated)	> 661	> 661	–

— PubChem BioAssay AID179 (DTP/NCI, 2004)
